Experimental findings from ChEMBL document CHEMBL1129243, “(S)-(+)-2-(3'-carboxybicyclo[1.1.1]pentyl)-glycine, a structurally new group I metabotropic glutamate receptor antagonist” (J Med Chem, 1996) are described below.

Common to all, as to type: functional, cell-based
Experiment [1] has as its target T1, Metabotropic glutamate receptor 4 (Homo sapiens, UniProt Q14833). Kind of experiment: The compound was tested for effect on second messenger formation in BHK cells expressing mGluR4a.
Experiment [2] addresses T2, Metabotropic glutamate receptor 2 (Homo sapiens, UniProt Q14416). As to the kind of experiment: The compound was tested for effect on second messenger formation in BHK cells expressing mGluR2.
Experiment [3] concerns the target T2, Metabotropic glutamate receptor 2. Kind of experiment: The compound was tested for inhibitory effect on second messenger formation in BHK cells expressing mGluR2.
Experiment [4] concerns the target T1, Metabotropic glutamate receptor 4. As to the kind of experiment: The compound was tested for inhibitory effect on second messenger formation in BHK cells expressing mGluR4a.
In experiment [5] the target is T3, Metabotropic glutamate receptor 5 (Homo sapiens, UniProt P41594). Kind of experiment: The compound was tested for effect on second messenger formation in BHK cells expressing mGluR5a.
Experiment [6] deals with T3, Metabotropic glutamate receptor 5. Kind of experiment: The compound was tested for effect on second messenger formation in BHK cells expressing mGluR5a at half maximal concentration.
For experiment [7] the target is unchanged. As to the kind of experiment: The compound was tested for inhibitory effect on second messenger formation in BHK cells expressing mGluR5a.

pEC50, pIC50: −log10 of the molar value.

T2 sequence (Q14416 whole entry): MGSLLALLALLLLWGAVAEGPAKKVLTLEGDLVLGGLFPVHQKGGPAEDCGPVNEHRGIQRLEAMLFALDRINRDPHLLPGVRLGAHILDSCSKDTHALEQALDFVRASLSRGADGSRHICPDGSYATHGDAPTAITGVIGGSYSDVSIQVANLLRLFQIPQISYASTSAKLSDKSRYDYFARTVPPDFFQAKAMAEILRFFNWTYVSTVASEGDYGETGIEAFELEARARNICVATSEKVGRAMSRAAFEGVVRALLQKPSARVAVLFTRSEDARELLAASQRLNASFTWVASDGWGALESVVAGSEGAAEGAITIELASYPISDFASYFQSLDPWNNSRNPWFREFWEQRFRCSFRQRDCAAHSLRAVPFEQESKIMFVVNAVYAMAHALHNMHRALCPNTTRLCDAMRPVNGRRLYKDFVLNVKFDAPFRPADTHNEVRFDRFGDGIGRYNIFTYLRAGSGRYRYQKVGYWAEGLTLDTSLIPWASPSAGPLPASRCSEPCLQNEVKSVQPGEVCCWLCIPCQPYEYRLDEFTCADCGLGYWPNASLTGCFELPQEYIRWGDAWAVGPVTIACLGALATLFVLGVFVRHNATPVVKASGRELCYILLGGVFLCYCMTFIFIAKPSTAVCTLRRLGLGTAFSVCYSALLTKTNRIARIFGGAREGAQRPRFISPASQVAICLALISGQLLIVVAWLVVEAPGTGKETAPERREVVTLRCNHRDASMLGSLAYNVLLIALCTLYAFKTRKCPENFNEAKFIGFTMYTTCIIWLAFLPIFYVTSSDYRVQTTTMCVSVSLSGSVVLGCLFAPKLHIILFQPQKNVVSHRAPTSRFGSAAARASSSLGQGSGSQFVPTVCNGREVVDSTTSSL
T3 sequence (P41594 whole entry): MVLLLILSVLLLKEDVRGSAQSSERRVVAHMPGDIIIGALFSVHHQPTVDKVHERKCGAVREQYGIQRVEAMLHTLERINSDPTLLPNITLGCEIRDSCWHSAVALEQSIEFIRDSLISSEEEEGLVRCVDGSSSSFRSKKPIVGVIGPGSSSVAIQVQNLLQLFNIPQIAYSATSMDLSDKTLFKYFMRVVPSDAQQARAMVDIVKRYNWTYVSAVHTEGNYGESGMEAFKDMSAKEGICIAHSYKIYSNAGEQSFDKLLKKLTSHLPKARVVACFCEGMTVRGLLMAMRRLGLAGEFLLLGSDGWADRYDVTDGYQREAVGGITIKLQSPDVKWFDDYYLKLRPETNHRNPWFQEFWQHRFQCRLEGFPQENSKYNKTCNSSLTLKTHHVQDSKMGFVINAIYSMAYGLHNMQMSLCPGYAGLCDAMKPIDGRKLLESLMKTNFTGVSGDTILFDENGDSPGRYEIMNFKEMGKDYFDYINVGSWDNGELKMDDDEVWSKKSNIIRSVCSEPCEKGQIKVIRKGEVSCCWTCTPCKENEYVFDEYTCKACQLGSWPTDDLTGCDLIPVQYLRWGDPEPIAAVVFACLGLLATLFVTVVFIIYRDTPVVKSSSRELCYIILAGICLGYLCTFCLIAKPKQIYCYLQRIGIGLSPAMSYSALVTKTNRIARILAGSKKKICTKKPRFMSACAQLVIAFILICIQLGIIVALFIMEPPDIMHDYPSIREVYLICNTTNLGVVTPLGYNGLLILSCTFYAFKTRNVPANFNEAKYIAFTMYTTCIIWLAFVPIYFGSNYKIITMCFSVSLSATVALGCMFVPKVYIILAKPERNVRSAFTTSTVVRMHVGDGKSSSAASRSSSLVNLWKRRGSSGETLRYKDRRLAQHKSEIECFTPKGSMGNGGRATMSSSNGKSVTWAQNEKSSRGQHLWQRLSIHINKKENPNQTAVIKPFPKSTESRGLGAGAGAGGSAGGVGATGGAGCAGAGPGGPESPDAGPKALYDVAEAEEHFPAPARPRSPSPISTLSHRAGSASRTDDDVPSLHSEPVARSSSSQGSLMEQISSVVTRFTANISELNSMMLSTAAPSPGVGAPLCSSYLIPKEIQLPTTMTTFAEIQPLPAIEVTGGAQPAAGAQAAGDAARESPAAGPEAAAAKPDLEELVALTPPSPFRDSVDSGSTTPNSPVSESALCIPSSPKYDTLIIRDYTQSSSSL
T1 sequence (Q14833 whole entry): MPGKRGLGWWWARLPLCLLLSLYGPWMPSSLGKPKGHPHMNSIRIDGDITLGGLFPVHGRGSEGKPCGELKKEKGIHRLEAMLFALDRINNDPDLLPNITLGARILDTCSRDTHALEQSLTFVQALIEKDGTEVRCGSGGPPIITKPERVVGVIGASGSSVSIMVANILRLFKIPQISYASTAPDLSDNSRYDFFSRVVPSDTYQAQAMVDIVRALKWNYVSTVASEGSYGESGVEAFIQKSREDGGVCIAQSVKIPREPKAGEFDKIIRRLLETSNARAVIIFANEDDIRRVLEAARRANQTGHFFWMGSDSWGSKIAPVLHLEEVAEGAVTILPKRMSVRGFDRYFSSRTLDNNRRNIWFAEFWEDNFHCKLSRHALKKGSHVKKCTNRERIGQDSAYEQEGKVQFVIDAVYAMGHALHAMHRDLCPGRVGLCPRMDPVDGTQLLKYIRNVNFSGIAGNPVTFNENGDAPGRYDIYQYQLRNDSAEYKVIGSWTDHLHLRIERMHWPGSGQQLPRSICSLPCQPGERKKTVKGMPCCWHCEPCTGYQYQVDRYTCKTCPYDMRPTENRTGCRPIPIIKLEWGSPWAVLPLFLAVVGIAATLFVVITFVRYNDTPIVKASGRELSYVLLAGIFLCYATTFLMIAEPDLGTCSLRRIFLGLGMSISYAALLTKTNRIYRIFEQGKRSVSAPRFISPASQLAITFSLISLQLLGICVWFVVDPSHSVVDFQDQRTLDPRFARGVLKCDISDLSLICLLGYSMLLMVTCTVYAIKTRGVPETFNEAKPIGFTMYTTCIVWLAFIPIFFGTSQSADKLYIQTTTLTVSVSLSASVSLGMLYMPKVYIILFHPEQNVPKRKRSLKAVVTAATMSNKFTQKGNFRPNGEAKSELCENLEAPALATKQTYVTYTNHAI

For the compound `N[C@H](C(=O)O)C12CC(C(=O)O)(C1)C2`, the pEC50 (commonly −log10 of the EC50, conventionally taken in molar units) was under 3.52 in experiment [1], under 3.52 in experiment [2], under 3.52 in experiment [5] and 3.99 in experiment [6]. Also, the pIC50 in experiment [3], in experiment [4] and in experiment [7] was under 3.52 each time.

Turning to `N[C@@H](C(=O)O)C12CC(C(=O)O)(C1)C2`, the pEC50 in experiment [1], in experiment [2] and in experiment [5] was under 3.52 in each case. Further, the pIC50 in experiment [3], in experiment [4] and in experiment [7] was under 3.52 in each case.
